Test system: phagocytes
Assay: Luminol-amplified chemiluminescence (CL) kinetics of zymosan-stimulated diluted whole blood
Type: cell-based, human
Protocol: Zymosan-A (Sigma Chemical Co.) was used as a phagocyte-stimulating agent. It was opsonized for 30 min at 37° C. in sample serum (20 mg/mL) and washed twice in 0.9% NaCl. The zymosan suspension in Krebs-Ringer phosphate medium (KRP) was prepared immediately prior to use. KRP was composed of 119 mmol/L NaCl, 4.75 mmol/L KCl, 0.420 mmol/L CaCl2, 1.19 mmol/L MgSO4.7H2O, 16.6 mmol/L sodium phosphate buffer, pH 7.4 and 5.56 mmol/L glucose (De Sole et al., 1983). Luminol (Sigma Chemical Co.) was used to amplify the chemiluminescence activity. A luminol stock solution (10 mmol/L in dimethyl sulfoxide) was stored in a dark place at room temperature and diluted 1:10 (v/v) with KRP just before use. In all experiments, the final concentration of luminol was 100 μmol/L. In some experiments formylmethionyl-leucyl-phenylalanine (fMLP—Sigma Chemical Co.) was used for priming (5 nM) of CL emitting cells. All reagents used were of analytical grade and the water was glass-distilled.
Diluted whole blood (1:100 v/v final dilution) was used to avoid artifacts due to the isolation of PMNs. Peripheral venous blood from human adults was collected in heparinized tubes (20 U/mL). Samples with a total volume of 200 μL contained diluted whole fresh blood, luminol and zymosan in KRP. […] After diluted blood was added, the sample content was mixed and CL measured. […]

Row | SMILES | phagocytosis-related parts of the CL response (diluted whole blood preincubated at 37° C. for 5 minutes with 1.5 mmol/liter of aspirin, FIG. 6A) | relative contribution of extracellularly and intracellularly produced ROS (derived kinetic parameters) (diluted whole blood preincubated at 37° C. for 5 minutes with 3 nmol/liter fMLP, FIG. 2)
1 | CC(=O)Oc1ccccc1C(=O)O [aspirin] | significant decrease | –
2 | CSCC[C@H](NC=O)C(=O)N[C@@H](CC(C)C)C(=O)N[C@@H](Cc1ccccc1)C(=O)O [fMLP, N-formylmethionyl leucyl phenylalanine] | – | more significant for the extracellular ROS production

From patent US20090053751A1, “Chemiluminescent Method and Device for Evaluating the In Vivo Functional State of Phagocytes” (priority 2005, published 2009)
